In US9962341B2, “Active pharmaceutical ingredient (API) comprising cannabinoids for use in the treatment of cancer” (GW Pharma Limited, priority 2014, dated 2018):
Where two headings read alike, the source gives them in different places.

System: HGC-27
Assay: Cell viability (CellTiter-Blue, 72 h), HGC-27 gastric cancer cells
Format: cell-based
Settings: Homo sapiens
Description: The following cell lines were tested in this example: Lung Cancer (A549, NCI-H460); Pancreatic cancer (PANC1, Mia-Pa-Ca-2); Melanoma (WM115, A375); Ovarian cancer (OVCAR3, SKOV3); Gastric cancer (MKN45, HGC-27); Renal cancer (ACHN) and Bladder Cancer (RT112).
Each tumour cell line was maintained in vitro in RPMI 1640+10% heat inactivated FBS and 2 mM L-glutamine (growth media) at 37° C. in 5% CO2 and humidified conditions. The cells were harvested, washed, re-suspended into growth medium and counted. The cells were re-suspended into assay media (RPMI 1640+5% heat inactivated FBS+ and 2 mM L-glutamine) at 4×10^4 cells/ml (dependent upon cell type) and plated into the middle 240 wells of 384 well tissue culture plates (Corning CellBind, black-wall plates) 25 μl/well aliquots; 50 μl of growth media was aliquoted into the outer wells. There were 3 plates for each cell line.
The plates were incubated overnight at 37° C., in 5% humidified CO2.
The phytocannabinoid test compounds were prepared in 100% DMSO vehicle at a stock concentration of 20 and 40 mM.
Starting with the 20 mM stock in DMSO, this was serially diluted (2 fold) in DMSO in a 96-well plate, to 20 (no dilution), 10, 5, 2.5, 1.25, 0.625, 0.315, 0.157 and […]. Following this, 10 ul of each compound dilution was diluted into 990 ul of 1% (v/v) FBS media in a deep well block making the final concentrations of 200, 100, 50, 25, 12.5, 6.25, 3.125, 1.56 and 0.79 μM (2× final assay concentrations and 1% DMSO).
An equal volume of each cannabinoid in the combination (stock concentration 40 mM) was mixed together to make a stock of 20 mM of each cannabinoid in DMSO. This was serially diluted (2 fold) in DMSO in a 96-well plate, to 20 (no dilution), 10, 5, 2.5, 1.25, 0.625, 0.315, 0.157 and […]. Following this, 10 ul of each combination dilution was diluted into 990 ul of 1% (v/v) FBS media in a deep well block making the final concentrations of 200, 100, 50, 25, 12.5, 6.25, 3.125, 1.56 and 0.79 μM (2× final assay concentrations and 1% DMSO).
Cisplatin (stock of 1 mg/ml=3.33 mM in water) was diluted in 1% FBS media to give a stock concentration of 1 mM. This was then diluted in 1% FBS media from the stock solution to 200 μM, then serially diluted (3-fold) in 1% FBS media to 200 (no dilution), 66.66, 22.22, 7.41, 2.47, 0.82, 0.27, 0.09, 0.03 μM (2× final assay concentrations; no DMSO).
The plates were incubated for 72 h at 37° C. in 5% humidified CO2. To develop the plates, at 72 h, 10 μl of CellTiter-Blue™ reagent was added to each test/blank well.
The plates were incubated at 37° C., 5% humidified CO2. Fluorescence was measured using a Flex II Station plate reader (570 nm excitation wavelength, 600 nm emission wavelength, 590 nm cut-off) after 3 h.
The phytocannabinoid compounds CBD, CBGA, CBG, CBDA, THCV and THC were tested on a panel of lung (A549, NCI-H460), pancreatic (PANC1, Mia-Pa-Ca-2), melanoma (WM115, A375), ovarian (OVCAR3, SKOV3), gastric (MKN45, HGC-27), renal (ACHN) and bladder (RT112) cancer cell lines according to the protocol for 72 h in media containing 1% FBS.
The IC50 values for each phytocannabinoid and combination of CBD with the other phytocannabinoids was calculated for each cell line. The raw data values expressed in relative fluorescent units were normalised to the vehicle for each individual plate and any reduction in fluorescence indicated a decrease in viability.
This calculation was as described in Example 1 above.

[1] = HGC-27, HGC27 cells, 1% FBS, read-out: Dm (potency, median effect)
[2] = HGC-27, 1% FBS, 72 h, read-out: Cell line IC50 value

Compound `C=C(C)[C@@H]1CCC(C)=C[C@H]1c1c(O)cc(CCCCC)cc1O` [CBD, Cannabidiol] has an IC50 [1] of 1720 nM and an IC50 [2] of 1500 nM.

`C=C(C)[C@@H]1CCC(C)=C[C@H]1c1c(O)cc(CCCCC)c(C(=O)O)c1O` [CBDA, Cannabidiolic acid] was tested, and the IC50 [1] was 10400 nM and the IC50 [2] was 1300 nM.

`CCCCCc1cc(O)c(C/C=C(\C)CCC=C(C)C)c(O)c1` [CBG, Cannabigerol] was tested, and the IC50 [1] was 1730 nM and the IC50 [2] was 1600 nM.

Compound `CCCCCc1cc(O)c(C/C=C(\C)CCC=C(C)C)c(O)c1C(=O)O` [CBGA, Cannabigerolic acid] has an IC50 [1] of 5470 nM and an IC50 [2] of 7800 nM.

Work on `CCCCCc1cc(O)c2c(c1)OC(C)(C)[C@@H]1CCC(C)=C[C@@H]21` [THC, Tetrahydrocannabinol, reference compound] yielded an IC50 [1] of 2740 nM and an IC50 [2] of 2800 nM.

In the case of `CCCc1cc(O)c2c(c1)OC(C)(C)[C@@H]1CCC(C)=C[C@@H]21` [THCV, Tetrahydrocannabivarin], the IC50 [1] is reported as 3060 nM and the IC50 [2] is reported as 4100 nM.
